For assay [1], the target named is T1, Artemis (SNM1C/DCLRE1C) (Homo sapiens, UniProt Q96SD1). In words: biochemical.
Target sequence in this assay (Q96SD1 whole entry, the tested form may be a part): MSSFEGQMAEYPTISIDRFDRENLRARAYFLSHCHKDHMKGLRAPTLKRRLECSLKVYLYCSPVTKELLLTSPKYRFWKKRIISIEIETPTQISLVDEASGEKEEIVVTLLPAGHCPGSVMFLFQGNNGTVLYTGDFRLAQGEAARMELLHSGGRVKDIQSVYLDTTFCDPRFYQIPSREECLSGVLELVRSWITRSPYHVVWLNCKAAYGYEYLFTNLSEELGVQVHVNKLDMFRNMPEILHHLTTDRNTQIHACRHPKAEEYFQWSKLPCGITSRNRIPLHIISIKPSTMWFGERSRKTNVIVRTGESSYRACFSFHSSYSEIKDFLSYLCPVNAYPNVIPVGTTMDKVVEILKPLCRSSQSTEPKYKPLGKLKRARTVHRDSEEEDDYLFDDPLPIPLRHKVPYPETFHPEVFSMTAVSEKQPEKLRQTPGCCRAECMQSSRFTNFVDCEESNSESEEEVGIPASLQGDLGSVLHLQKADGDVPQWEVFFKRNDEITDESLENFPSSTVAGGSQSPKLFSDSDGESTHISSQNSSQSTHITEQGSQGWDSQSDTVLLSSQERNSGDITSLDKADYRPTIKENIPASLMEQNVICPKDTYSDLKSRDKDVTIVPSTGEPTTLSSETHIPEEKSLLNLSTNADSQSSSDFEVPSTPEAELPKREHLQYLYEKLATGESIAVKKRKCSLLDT
In assay [2] the target is T1, Artemis (SNM1C/DCLRE1C). The assay can be described thus: X-ray crystal structure ([…] Å) plus real-time fluorescence-based nuclease assay (IC50). The assay is classed as biochemical. Also on record: truncated Artemis catalytic domain, MBL-β-CASP (aa 1-361). The source says: We solved a structure of ceftriaxone bound to Artemis
Target sequence in this assay (Q96SD1 1-361): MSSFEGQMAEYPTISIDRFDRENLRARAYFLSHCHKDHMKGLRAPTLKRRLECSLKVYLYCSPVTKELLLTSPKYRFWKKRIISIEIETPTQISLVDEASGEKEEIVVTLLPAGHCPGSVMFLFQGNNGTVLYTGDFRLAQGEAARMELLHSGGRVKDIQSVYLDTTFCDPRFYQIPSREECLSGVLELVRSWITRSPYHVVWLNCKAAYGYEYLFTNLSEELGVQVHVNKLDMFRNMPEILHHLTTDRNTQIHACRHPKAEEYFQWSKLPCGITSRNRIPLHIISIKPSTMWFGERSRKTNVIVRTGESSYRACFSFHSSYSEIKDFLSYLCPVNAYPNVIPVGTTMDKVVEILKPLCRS

Consider `CCN(CC)C(=S)SSC(=S)N(CC)CC` [disulfiram], for which the IC50 on Artemis (SNM1C/DCLRE1C) [1] (read-out: IC50) was approximately 10.8 µM.
As for `O=c1c2ccccc2[se]n1-c1ccccc1` [ebselen], the IC50 against Artemis (SNM1C/DCLRE1C) [1] was approximately 8.5 µM.
As to `CO/N=C(\C(=O)N[C@@H]1C(=O)N2C(C(=O)O)=C(CSc3nc(=O)c(=O)[nH]n3C)CS[C@H]12)c1csc(N)n1` [ceftriaxone], on Artemis (SNM1C/DCLRE1C) [2], the 50% inhibitory concentration (IC50) was determined as 65 µM.
`CC[P](CC)(CC)=[Au][S][C@@H]1O[C@H](COC(C)=O)[C@@H](OC(C)=O)[C@H](OC(C)=O)[C@H]1OC(C)=O` [auranofin]: it took 46 µM to reach half-maximal inhibition on Artemis (SNM1C/DCLRE1C) [1] (IC50).

For the origin of these results see PMC8450076, “Structural and mechanistic insights into the Artemis endonuclease and strategies for its inhibition” (Nucleic Acids Research, 2021).
